Consider three compounds from ChEMBL document CHEMBL5528083, “Discovery of a Novel Thienopyrimidine Compound as a Urate Transporter 1 and Glucose Transporter 9 Dual Inhibitor with Improved Efficacy and Favorable Druggability” (J Med Chem, 2024).

SMILES strings stand for the structures.

In general, inhibition refers to the relative decrease from the control value, in per cent.

Series [1] relates to Mus musculus. The series is described as follows: Reduction in serum uric acid level in acute hyperuricemia state Kunming mouse model assessed as SUA level at 2 mg/kg, po (reference value: 1037 +/- 106.59 uM). It is filed as functional.
The species entered for series [2] is Mus musculus. In words: Reduction in serum uric acid level in acute hyperuricemia state Kunming mouse model assessed as SUA level. The series is classed as functional.
For series [3], the species on record is Mus musculus. The series is described as follows: Reduction in serum uric acid level in acute hyperuricemia state Kunming mouse model assessed as SUA level by measuring decrease ratio relative to control. It is filed as functional. Also on record: concentration or dose not given beside the values.
Series [4] deals with Xanthine dehydrogenase/oxidase (Bos taurus, UniProt P80457). The series is described as follows: Inhibition of bovine XOD using xanthine as substrate assessed as inhibitory ratio at 10 uM by spectrophotometric analysis relative to control. The settings on record: cattle.
Series [5] concerns Mus musculus. In words: Reduction in serum uric acid level in acute hyperuricemia state Kunming mouse model assessed as SUA level by measuring decrease ratio at 2 mg/kg, po relative to control. It is filed as functional. Also noted: scale not given: the % may be the effect or the level left.
Series [6] has as its system Rattus norvegicus. The series is described as follows: Reduction in serum uric acid level in po dosed acute hyperuricemia state Sprague-Dawley rat model assessed as SUA level (reference value: 955.20 +/- 85.56 uM). The series is classed as functional.
Series [7] deals with Rattus norvegicus. The series is described as follows: Reduction in serum uric acid level in po dosed acute hyperuricemia state Sprague-Dawley rat model assessed as SUA level by measuring decrease ratio relative to control. The series is classed as functional. Also noted: scale not given: the % may be the effect or the level left.
Series [8] is filed under the species Mus musculus. In words: Reduction in serum uric acid level in chronic hyperuricemia state Kunming mouse model assessed as SUA level (reference value: 660.33 +/- 103.57 uM). It is filed as functional.
The species named for series [9] is Mus musculus. The series is described as follows: Reduction in serum uric acid level in chronic hyperuricemia state Kunming mouse model assessed as SUA level by measuring decrease ratio relative to control. It is filed as functional. Also on record: scale not given: the % may be the effect or the level left.
Series [10] is described as follows: Acute toxicity in Kunming mouse assessed as fatality rate at 1000 mg/kg, po administered as single dose monitored for 7 days. It is filed as organism-based. The settings on record: Kunming, in vivo, time 7 day, read-out: Activity.
Series [11] in a line: Acute toxicity in Kunming mouse assessed as fatality rate at 500 mg/kg, po administered as single dose monitored for 7 days. The settings on record: Kunming, in vivo, time 7 day, read-out: Activity. The series is classed as organism-based.
The nature of series [12]: Subacute toxicity in Kunming mouse assessed as abnormal behavior at 25 mg/kg, po administered every other day for 14 days. It is filed as organism-based. The settings on record: in vivo, 336 h, time 14 day.
Series [13] is described as follows: Toxicity in Kunming female mouse assessed as renal injury at 100 mg/kg, po administered every other day for 14 days by H and E staining based assay. It is filed as organism-based. The settings on record: in vivo, 336 h, time 14 day.
Series [14] can be described thus: Toxicity in Kunming female mouse assessed as coagulation necrosis of hepatocyte at 100 mg/kg, po administered every other day for 14 days by H and E staining based assay. The conditions noted are these: 336 h, time 14 day. The series is classed as organism-based.
Series [15] is described as follows: Toxicity in Kunming female mouse assessed as balloon like degeneration of liver at 100 mg/kg, po administered every other day for 14 days by H and E staining based assay. It is filed as organism-based. The settings on record: in vivo, 336 h, time 14 day.
Series [16] addresses T1, Solute carrier family 2, facilitated glucose transporter member 9 (Mus musculus) (UniProt Q3T9X0).
T1 sequence (whole entry): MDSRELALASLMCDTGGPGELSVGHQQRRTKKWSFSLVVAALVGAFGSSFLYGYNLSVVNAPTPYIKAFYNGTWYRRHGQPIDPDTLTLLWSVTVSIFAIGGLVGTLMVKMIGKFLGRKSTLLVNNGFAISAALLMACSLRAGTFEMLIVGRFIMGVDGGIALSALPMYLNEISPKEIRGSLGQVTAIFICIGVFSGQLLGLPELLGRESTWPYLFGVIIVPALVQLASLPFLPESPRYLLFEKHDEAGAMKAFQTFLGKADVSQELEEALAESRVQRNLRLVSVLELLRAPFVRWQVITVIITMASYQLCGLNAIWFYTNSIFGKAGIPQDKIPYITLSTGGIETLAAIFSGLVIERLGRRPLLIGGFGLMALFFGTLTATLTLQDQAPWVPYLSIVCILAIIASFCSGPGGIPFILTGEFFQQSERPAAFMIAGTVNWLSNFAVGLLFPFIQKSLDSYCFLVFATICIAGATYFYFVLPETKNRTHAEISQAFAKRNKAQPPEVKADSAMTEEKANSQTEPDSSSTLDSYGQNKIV
In words: Inhibition of mouse EGFP-tagged GLUT9 expressed in HEK293T cells assessed as inhibition rate by measuring relative current at 5 uM by patch clamp electrophysiological analysis relative to control. The series is classed as cell-based. Also noted: scale not given: the % may be the effect or the level left.

Sequence of Xanthine dehydrogenase/oxidase (P80457 whole entry): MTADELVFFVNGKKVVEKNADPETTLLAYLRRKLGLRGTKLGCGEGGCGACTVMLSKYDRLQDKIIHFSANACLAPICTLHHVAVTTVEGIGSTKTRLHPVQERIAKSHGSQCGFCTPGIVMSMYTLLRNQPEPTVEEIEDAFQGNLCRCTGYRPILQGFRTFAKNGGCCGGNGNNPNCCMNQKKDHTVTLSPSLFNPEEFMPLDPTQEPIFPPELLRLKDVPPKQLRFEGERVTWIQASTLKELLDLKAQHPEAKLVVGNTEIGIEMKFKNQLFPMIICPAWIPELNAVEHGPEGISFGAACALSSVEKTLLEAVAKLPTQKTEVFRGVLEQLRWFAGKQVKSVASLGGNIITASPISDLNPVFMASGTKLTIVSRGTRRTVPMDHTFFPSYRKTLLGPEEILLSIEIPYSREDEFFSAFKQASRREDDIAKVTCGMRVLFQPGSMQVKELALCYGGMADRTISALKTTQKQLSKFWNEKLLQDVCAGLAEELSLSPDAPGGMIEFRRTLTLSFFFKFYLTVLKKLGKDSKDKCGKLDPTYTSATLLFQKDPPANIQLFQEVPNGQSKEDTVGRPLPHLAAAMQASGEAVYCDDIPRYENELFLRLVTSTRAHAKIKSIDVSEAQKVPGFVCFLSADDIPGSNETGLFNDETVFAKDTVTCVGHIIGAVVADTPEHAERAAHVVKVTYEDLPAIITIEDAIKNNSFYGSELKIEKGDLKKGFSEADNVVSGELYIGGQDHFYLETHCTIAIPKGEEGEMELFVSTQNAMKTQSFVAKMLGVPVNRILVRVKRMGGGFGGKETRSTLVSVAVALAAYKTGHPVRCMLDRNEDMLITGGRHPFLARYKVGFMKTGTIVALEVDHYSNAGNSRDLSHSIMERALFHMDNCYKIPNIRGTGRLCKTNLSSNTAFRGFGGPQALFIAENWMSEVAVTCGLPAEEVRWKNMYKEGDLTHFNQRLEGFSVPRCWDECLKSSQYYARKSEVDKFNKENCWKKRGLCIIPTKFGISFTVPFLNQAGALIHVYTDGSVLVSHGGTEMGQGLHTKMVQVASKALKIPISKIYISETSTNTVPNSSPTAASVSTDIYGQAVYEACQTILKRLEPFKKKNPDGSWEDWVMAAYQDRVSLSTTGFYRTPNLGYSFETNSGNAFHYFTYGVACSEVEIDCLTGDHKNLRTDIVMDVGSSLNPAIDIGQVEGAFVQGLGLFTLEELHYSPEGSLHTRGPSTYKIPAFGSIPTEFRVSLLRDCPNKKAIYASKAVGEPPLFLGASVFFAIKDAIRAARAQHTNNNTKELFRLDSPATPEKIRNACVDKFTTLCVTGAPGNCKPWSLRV

Consider `CC(Sc1nc2ncccc2n1-c1ccc(C2CC2)c2ccccc12)C(=O)O` (centres undefined), for which, in the series on Mus musculus [1], the Activity was found to be 706.25 µM.

For `O=C(O)CSc1nnc(Br)n1-c1ccc(C2CC2)c2ccccc12`, the Activity in the series listed under Mus musculus [2] amounted to 841.2 µM; in the series filed under Mus musculus [3], 28.5%; in the series with Mus musculus [1], 706.25 µM; in the series on Mus musculus [5] it was 35.56%; in the series with Rattus norvegicus [6] it was 685.6 µM; in the series on Rattus norvegicus [7], 31.77%. Moreover, the Activity in the series filed under Mus musculus [8] is 476 µM; in the series listed under Mus musculus [9], 33.56%; in [12], “Non-Toxic”; in series [13], “Toxic”; in [14], “Toxic”; in series [15] it was “Toxic”. Also, the inhibition at 10 µM in series [4] is 5.72%. The mortality at 168 h in [10] came out at 60%; in [11], 20%.

For `CCc1oc2ccccc2c1C(=O)c1cc(Br)c(O)c(Br)c1` [BENZBROMARONE], the results for the Activity (in the series listed under Mus musculus [2]; in the series listed under Mus musculus [3]; in series [16]) were 753.2 µM, 37.3% and 74.7%, respectively.
